Data published in ChEMBL document CHEMBL4673382, “Cyclin-Dependent Kinase Inhibitors in Cancer Therapeutics” (ACS Med Chem Lett, 2021).

Legend:
[1] = molecular target: CDK9/cyclin T1 (Homo sapiens, UniProt P50750); test: Inhibition of human full-length N-terminal GST-fused CDK9 (1 to 372 residues)/His-tagged Cyclin-T1 (1 to 726 residues) expressed in baculovirus expression system using PEP as substrate incubated for 17 mins in presence of ATP by TR-FRET assay
[2] = molecular target: Cyclin-dependent kinase 4/cyclin D1 (Homo sapiens, UniProt P11802); test: Inhibition of recombinant human full-length GST-tagged CDK4/cyclinD1 expressed in baculovirus expression system using PEP as substrate incubated for 3 mins in presence of ATP by TR-FRET assay
[3] = molecular target: CDK6/cyclin D3 (Homo sapiens, UniProt Q00534); test: Inhibition of human full-length N-terminal GST tagged CDK6 (1 to 326 residues)/cyclinD3 (1 to 292 residues) expressed in baculovirus expression system using PEP as substrate incubated for 3 mins in presence of ATP by TR-FRET assay
[4] = Half life in rat at 100 mg/kg, po measured up to 48 hrs by LC-MS/MS analysis; format: ADME, organism-based; settings: in vivo
[5] = Oral bioavailability in rat at 100 mg/kg administered as single dose measured up to 48 hrs by LC-MS/MS analysis; format: ADME, organism-based; settings: in vivo

Chain of Cyclin-dependent kinase 4/cyclin D1 (P11802 whole entry, the tested form may be a part): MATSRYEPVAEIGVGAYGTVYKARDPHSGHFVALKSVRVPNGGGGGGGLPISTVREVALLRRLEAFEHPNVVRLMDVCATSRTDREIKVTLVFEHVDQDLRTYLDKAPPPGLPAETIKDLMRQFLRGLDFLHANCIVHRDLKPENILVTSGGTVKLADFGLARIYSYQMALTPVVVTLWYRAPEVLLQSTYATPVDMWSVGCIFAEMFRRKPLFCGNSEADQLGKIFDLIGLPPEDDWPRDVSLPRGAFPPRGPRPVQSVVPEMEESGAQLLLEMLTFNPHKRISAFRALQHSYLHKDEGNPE
Chain of Cyclin-dependent kinase 4/cyclin D1 (P24385 whole entry, further chain, the tested form may be a part): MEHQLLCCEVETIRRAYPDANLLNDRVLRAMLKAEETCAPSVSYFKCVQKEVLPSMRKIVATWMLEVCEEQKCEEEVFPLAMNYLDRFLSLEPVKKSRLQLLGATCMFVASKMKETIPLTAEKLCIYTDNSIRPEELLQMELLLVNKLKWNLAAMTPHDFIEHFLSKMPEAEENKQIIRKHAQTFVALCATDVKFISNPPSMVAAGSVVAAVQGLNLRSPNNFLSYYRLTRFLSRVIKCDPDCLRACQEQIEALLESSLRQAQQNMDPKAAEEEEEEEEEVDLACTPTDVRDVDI
Chain of CDK9/cyclin T1 (O60563 whole entry, the tested form may be a part): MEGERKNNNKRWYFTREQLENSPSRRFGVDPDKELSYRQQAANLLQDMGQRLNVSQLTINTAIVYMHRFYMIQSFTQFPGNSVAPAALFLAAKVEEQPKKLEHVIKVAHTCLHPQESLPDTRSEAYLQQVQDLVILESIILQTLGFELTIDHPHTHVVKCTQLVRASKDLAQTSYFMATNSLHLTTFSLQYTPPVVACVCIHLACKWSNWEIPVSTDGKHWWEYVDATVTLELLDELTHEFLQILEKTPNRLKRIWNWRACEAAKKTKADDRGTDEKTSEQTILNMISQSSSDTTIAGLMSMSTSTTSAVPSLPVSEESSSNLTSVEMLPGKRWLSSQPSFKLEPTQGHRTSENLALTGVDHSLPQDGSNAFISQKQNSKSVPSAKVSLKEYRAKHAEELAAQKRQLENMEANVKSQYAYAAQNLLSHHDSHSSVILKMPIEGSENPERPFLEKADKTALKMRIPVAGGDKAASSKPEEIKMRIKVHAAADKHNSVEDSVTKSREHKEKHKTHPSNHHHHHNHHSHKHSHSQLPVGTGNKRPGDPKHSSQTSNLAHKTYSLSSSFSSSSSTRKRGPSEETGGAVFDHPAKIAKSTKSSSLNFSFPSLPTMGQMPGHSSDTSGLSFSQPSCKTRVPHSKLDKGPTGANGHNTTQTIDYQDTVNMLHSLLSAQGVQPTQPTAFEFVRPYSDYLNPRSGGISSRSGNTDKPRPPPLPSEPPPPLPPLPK
Chain of CDK9/cyclin T1 (P50750 whole entry, the tested form may be a part): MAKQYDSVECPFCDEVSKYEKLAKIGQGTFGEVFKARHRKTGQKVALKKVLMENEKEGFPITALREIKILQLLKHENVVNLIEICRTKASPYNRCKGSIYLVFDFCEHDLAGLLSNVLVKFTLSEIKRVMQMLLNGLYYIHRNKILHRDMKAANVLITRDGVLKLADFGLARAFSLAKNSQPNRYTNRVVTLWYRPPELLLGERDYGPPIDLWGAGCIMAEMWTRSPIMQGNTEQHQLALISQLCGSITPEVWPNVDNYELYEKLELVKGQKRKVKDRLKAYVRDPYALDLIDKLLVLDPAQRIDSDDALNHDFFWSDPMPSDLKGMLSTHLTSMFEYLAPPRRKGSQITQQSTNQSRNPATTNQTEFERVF
Chain of CDK6/cyclin D3 (P30281 whole entry, the tested form may be a part): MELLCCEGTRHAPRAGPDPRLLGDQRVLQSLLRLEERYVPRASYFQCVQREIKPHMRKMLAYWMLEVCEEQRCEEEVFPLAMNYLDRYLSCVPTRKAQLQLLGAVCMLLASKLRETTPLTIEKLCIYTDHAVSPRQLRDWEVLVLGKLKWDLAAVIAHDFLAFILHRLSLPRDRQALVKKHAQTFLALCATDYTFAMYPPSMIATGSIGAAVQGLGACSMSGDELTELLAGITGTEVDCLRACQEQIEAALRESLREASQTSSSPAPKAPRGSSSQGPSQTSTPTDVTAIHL
Chain of CDK6/cyclin D3 (Q00534 whole entry, the tested form may be a part): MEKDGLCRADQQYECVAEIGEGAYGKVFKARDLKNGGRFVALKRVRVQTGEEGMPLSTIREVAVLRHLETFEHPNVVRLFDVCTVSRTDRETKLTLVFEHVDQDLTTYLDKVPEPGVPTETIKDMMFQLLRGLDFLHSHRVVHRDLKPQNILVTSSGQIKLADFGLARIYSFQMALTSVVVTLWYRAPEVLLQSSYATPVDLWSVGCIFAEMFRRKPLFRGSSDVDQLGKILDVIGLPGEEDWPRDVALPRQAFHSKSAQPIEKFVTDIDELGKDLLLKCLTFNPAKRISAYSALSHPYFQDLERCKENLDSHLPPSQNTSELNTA

| Compound | IC50 [1] | IC50 [2] | IC50 [3] | half-life [4] | bioavailability [5] |
| --- | --- | --- | --- | --- | --- |
| CN1CCN(C2CCN(c3ccc(Nc4ncc5cc(C(=O)N(C)C)n(C67CC(C6)C7)c5n4)cc3F)CC2)CC1 | 7.55 nM | 3.78 nM | – | – | – |
| CC(C)N1CCN(c2ccc(Nc3ncc4c(n3)N(C3CCCC3)C3(CC(=O)NC3=O)C4)cc2)CC1 (stereo not given) | 70.7 nM | 28.4 nM | – | – | – |
| CN1CCN(c2ccc(Nc3ncc4c(n3)N(C3CCCC3)C3(CC(=O)NC3=O)C4)cc2F)CC1 (stereo not given) | 23.4 nM | 14.4 nM | 70.6 nM | – | – |
| CN1CCN(c2ccc(Nc3ncc4c(n3)N(C3CCCC3)C3(CCNC3=O)C4)cc2F)CC1 (stereo not given) | 46.6 nM | 51.7 nM | 258 nM | – | – |
| CC(=O)c1c(C)c2cnc(Nc3ccc(N(C)CCN(C)C)cc3)nc2n(C2CCCC2)c1=O | 7.13 nM | < 3.2 nM | – | – | – |
| CC(=O)c1c(C)c2cnc(Nc3ccc(OCCN(C)C)c(F)c3)nc2n(C2CCCC2)c1=O | 31.8 nM | 3 nM | 10.1 nM | – | – |
| CN1CCN(c2ccc(Nc3ncc4cc(C(=O)N(C)C)n(C56CC(C5)C6)c4n3)cc2)CC1 | 7.08 nM | 3.81 nM | – | 6 h | 33.3% |
| CN(C)C(=O)c1cc2cnc(Nc3ccc(N4CCN(CCO)CC4)c(F)c3)nc2n1C12CC(C1)C2 | < 3.2 nM | < 3.2 nM | – | – | – |
| CC(=O)c1c(C)c2cnc(Nc3ccc(N4CC(C)NC(C)C4)cc3)nc2n(C2CCCC2)c1=O (stereo not given) | 6.03 nM | < 3.2 nM | – | – | – |
| CN(C)C(=O)c1cc2cnc(Nc3ccc(N4CCNCC4)c(F)c3)nc2n1C12CC(C1)C2 | 6.18 nM | 4.13 nM | 10.1 nM | – | – |
| CN1CCN(c2ccc(Nc3ncc4c(n3)N(C3CCCC3)C3(CC(=O)NC3=O)C4)cc2)CC1 (stereo not given) | 80.5 nM | 25.7 nM | – | – | – |
| CC(=O)c1c(C)c2cnc(Nc3ccc(N(C)CCN(C)C)cc3)nc2n(C23CC(C2)C3)c1=O | 149 nM | 30 nM | – | – | – |
